According to ChEMBL document CHEMBL1201862, “PubChem BioAssay data set” (2004):
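Growth conditions: 96-well plates. Treatment: test compound, 48 hours, 5 concentrations. Analysis: linear interpolation between bracketing concentrations; unreached endpoints set to highest concentration. GI50 is the concentration that inhibits growth by half.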 Activity calls are given as the source filed them. Rule as the data show it: active = GI50 up to about 1.1 µM and inactive = higher.

Key:
Experiment in all cases: NCI-60 cell line screen, 48 h
SNB-19 = tested on: SNB-19
KM12 = tested on: KM12
Hs-578T = tested on: Hs-578T
CAKI-1 = tested on: CAKI-1
HCT-15 = tested on: HCT-15
NCI-H226 = tested on: NCI-H226
HL-60 = tested on: HL-60
K562 = tested on: K562
MOLT-4 = tested on: MOLT-4
HOP-92 = tested on: HOP-92
SF-268 = tested on: SF-268
CCRF-CEM = tested on: CCRF-CEM
OVCAR-8 = tested on: OVCAR-8
M14 = tested on: M14
OVCAR-5 = tested on: OVCAR-5
MDA-N = tested on: MDA-N
MDA-MB-231 = tested on: MDA-MB-231
SW-620 = tested on: SW-620
COLO 205 = tested on: COLO 205

Row | Structure (SMILES) | GI50 (SNB-19) | GI50 (KM12) | GI50 (Hs-578T) | GI50 (CAKI-1) | GI50 (HCT-15) [µM] | GI50 (NCI-H226) | GI50 (HL-60) | GI50 (K562) | GI50 (MOLT-4) | GI50 (HOP-92) | GI50 (SF-268) | GI50 (CCRF-CEM) | GI50 (OVCAR-8) | GI50 (M14) | GI50 (OVCAR-5) | GI50 (MDA-N) | GI50 (MDA-MB-231) | GI50 (SW-620) | GI50 (COLO 205)
1 | C/C=C(\C)C(O)C(C)C(O)C/C=C(C)/C=C(\C)C/C(C)=C/C/C=C(\C)C(O)C(C)c1ccc(CCC)c(=O)o1 (configuration not stated) | 16.1 µM (inactive) | 7.19 µM (inactive) | 14.5 µM (inactive) | 12.9 µM (inactive) | 1.17 | 21.1 µM (inactive) | > 100 µM (inactive) | 0.501 µM (active) | 20 µM (inactive) | 16.6 µM (inactive) | 15.8 µM (inactive) | 61.8 µM (inactive) | 12.9 µM (inactive) | 14.9 µM (inactive) | 19.8 µM (inactive) | 8.77 µM (inactive) | 13.2 µM (inactive) | 12.3 µM (inactive) | 3.78 µM (inactive)
2 | COc1ccc2c3c1O[C@H](c1ccc(O)cc1)[C@H]3[N+](C)(C)CC2 | 49.2 µM (inactive) | > 100 µM (inactive) | > 100 µM (inactive) | > 100 µM (inactive) | > 100 | > 100 µM (inactive) | 34.3 µM (inactive) | 34.1 µM (inactive) | > 100 µM (inactive) | > 100 µM (inactive) | > 100 µM (inactive) | > 100 µM (inactive) | > 100 µM (inactive) | > 100 µM (inactive) | > 100 µM (inactive) | > 100 µM (inactive) | > 100 µM (inactive) | > 100 µM (inactive) | 68.4 µM (inactive)
3 | NC(Cc1c[nH]c2ccccc12)P(=O)(O)O (configuration not stated) | > 100 µM (inactive) | > 100 µM (inactive) | > 100 µM (inactive) | > 100 µM (inactive) | > 100 | > 100 µM (inactive) | > 100 µM (inactive) | > 100 µM (inactive) | > 100 µM (inactive) | > 10 µM (inactive) | > 100 µM (inactive) | > 100 µM (inactive) | > 100 µM (inactive) | > 100 µM (inactive) | > 100 µM (inactive) | > 100 µM (inactive) | > 100 µM (inactive) | > 100 µM (inactive) | > 100 µM (inactive)
4 | CN1C(NN)=NS(=O)(=O)c2ccccc21 | > 100 µM (inactive) | > 100 µM (inactive) | > 100 µM (inactive) | > 100 µM (inactive) | > 100 | > 100 µM (inactive) | > 100 µM (inactive) | > 100 µM (inactive) | > 100 µM (inactive) | > 100 µM (inactive) | > 100 µM (inactive) | > 100 µM (inactive) | > 100 µM (inactive) | > 100 µM (inactive) | > 100 µM (inactive) | > 100 µM (inactive) | > 100 µM (inactive) | > 100 µM (inactive) | > 100 µM (inactive)
5 | CCCCCCCCCCCCCCCCCCNc1ccn(C2OC(CO)C(O)C2O)c(=O)n1 (configuration not stated) | > 25.4 µM (inactive) | 84.1 µM (inactive) | > 28.8 µM (inactive) | > 100 µM (inactive) | > 100 | > 100 µM (inactive) | 2.49 µM (inactive) | > 73.8 µM (inactive) | 4.58 µM (inactive) | > 100 µM (inactive) | > 100 µM (inactive) | 5.37 µM (inactive) | > 100 µM (inactive) | 55.5 µM (inactive) | > 100 µM (inactive) | > 100 µM (inactive) | > 100 µM (inactive) | > 100 µM (inactive) | 38 µM (inactive)
6 | CCN(CC)/C(Cl)=C(Cl)\C(=C1\Nc2ccc(OC)cc21)[N+](=O)[O-] | 61 µM (inactive) | 69.5 µM (inactive) | 78.7 µM (inactive) | 59 µM (inactive) | 52.7 | 18.9 µM (inactive) | 32.3 µM (inactive) | 31.7 µM (inactive) | 23.1 µM (inactive) | > 100 µM (inactive) | 50.4 µM (inactive) | 20.1 µM (inactive) | 63.4 µM (inactive) | > 100 µM (inactive) | 95.7 µM (inactive) | 50.4 µM (inactive) | 45.5 µM (inactive) | 43 µM (inactive) | 43.4 µM (inactive)
7 | CC(C)(C)OC(=O)N1Cc2cc(O)ccc2C[C@H]1C(=O)O | > 100 µM (inactive) | > 100 µM (inactive) | > 100 µM (inactive) | > 100 µM (inactive) | > 100 | > 100 µM (inactive) | 0.137 µM (active) | > 100 µM (inactive) | > 100 µM (inactive) | > 100 µM (inactive) | > 100 µM (inactive) | > 100 µM (inactive) | > 100 µM (inactive) |  | > 100 µM (inactive) | > 100 µM (inactive) | > 100 µM (inactive) | > 100 µM (inactive) | > 100 µM (inactive)
8 | C/C=C/C=C/C1=NN(c2cccc(S(=O)(=O)O)c2)C2(C1)C(Cl)C(=O)N2c1nc2ccccc2s1 (configuration not stated) | 15.2 µM (inactive) | 13.6 µM (inactive) | 25.2 µM (inactive) | 8.24 µM (inactive) | 14.5 | 14.3 µM (inactive) | 15.6 µM (inactive) | 28.8 µM (inactive) | 28.6 µM (inactive) | 24.5 µM (inactive) | 16.6 µM (inactive) | 3.01 µM (inactive) | 22 µM (inactive) | 15.1 µM (inactive) | 17.4 µM (inactive) | 15.5 µM (inactive) | 14.5 µM (inactive) | 20.2 µM (inactive) | 18.3 µM (inactive)
9 | COc1ccc(S(=O)(=O)n2c3c(c4ccccc42)[C@@H]2[C@@H](CCCN2C(=O)C[S+]([O-])c2ccc(C)cc2)[C@H](Cl)C3)cc1 (some centres not stated) | > 100 µM (inactive) | > 100 µM (inactive) | > 100 µM (inactive) | > 100 µM (inactive) | > 100 | > 100 µM (inactive) | 99.8 µM (inactive) | > 100 µM (inactive) | > 100 µM (inactive) | > 100 µM (inactive) | > 100 µM (inactive) | > 100 µM (inactive) | > 100 µM (inactive) | > 100 µM (inactive) | > 100 µM (inactive) | > 100 µM (inactive) | > 100 µM (inactive) | > 100 µM (inactive) | > 100 µM (inactive)
10 | CCCCn1c(C)c2c(c1C)C(=O)N(CC(O)CN1CCc3ccccc3C1)C2=O (configuration not stated) | > 100 µM (inactive) | 57 µM (inactive) | > 100 µM (inactive) | 80.2 µM (inactive) | > 100 | 68.7 µM (inactive) | 98.4 µM (inactive) | 47.2 µM (inactive) | 38.3 µM (inactive) | > 100 µM (inactive) | > 100 µM (inactive) | 69.8 µM (inactive) | > 100 µM (inactive) | 40.1 µM (inactive) | > 100 µM (inactive) | 70 µM (inactive) | > 100 µM (inactive) | > 100 µM (inactive) | 37.8 µM (inactive)
11 | CCC/C=C/C=C/C1CC(O)C(O)C(=O)C1CO (configuration not stated) | > 100 µM (inactive) | > 100 µM (inactive) | > 100 µM (inactive) | > 100 µM (inactive) | > 100 | > 100 µM (inactive) | 48.2 µM (inactive) | > 100 µM (inactive) |  | > 100 µM (inactive) | > 100 µM (inactive) | > 100 µM (inactive) | > 100 µM (inactive) | > 100 µM (inactive) | > 100 µM (inactive) | > 100 µM (inactive) | > 100 µM (inactive) | > 100 µM (inactive) | > 100 µM (inactive)
12 | O=C(c1cccnc1)N1N=C(c2ccc3c(c2)OCO3)CC1(O)c1cc(F)c(Cl)cc1Cl (configuration not stated) | 32.6 µM (inactive) | 26.9 µM (inactive) | 33 µM (inactive) | 28.6 µM (inactive) | 18 | 16.2 µM (inactive) | 20.2 µM (inactive) | 27.9 µM (inactive) | 15.3 µM (inactive) | 20.7 µM (inactive) | 19.9 µM (inactive) | 19.1 µM (inactive) | 18.8 µM (inactive) | 31.8 µM (inactive) | 22.3 µM (inactive) | 29.3 µM (inactive) | 17.3 µM (inactive) | 23.8 µM (inactive) | 15.1 µM (inactive)
13 | O=[N+]([O-])c1cc2c(c3nonc13)OCCCCO2 | 13.4 µM (inactive) | 4.37 µM (inactive) | 12.3 µM (inactive) | 14.3 µM (inactive) | 2.94 | 14.4 µM (inactive) | 2.55 µM (inactive) | 3.64 µM (inactive) | 3.99 µM (inactive) | 12.7 µM (inactive) | 3.37 µM (inactive) | 1.5 µM (inactive) | 4.36 µM (inactive) | 5 µM (inactive) | 12.1 µM (inactive) | 4.13 µM (inactive) | 3.31 µM (inactive) | 5.86 µM (inactive) | 4.95 µM (inactive)
14 | C/C(Sc1ccccc1)=C1/CCCN(Cc2ccccc2)C1 | 36.9 µM (inactive) | 20.1 µM (inactive) | 16.3 µM (inactive) | 24.9 µM (inactive) | 14.2 | 12.9 µM (inactive) | 13.7 µM (inactive) | 18 µM (inactive) | 16.7 µM (inactive) | 17.5 µM (inactive) | 36.1 µM (inactive) | 20.2 µM (inactive) | 30 µM (inactive) | 11.9 µM (inactive) | 23.7 µM (inactive) | 22.6 µM (inactive) | 24.1 µM (inactive) | 28.9 µM (inactive) | 17.5 µM (inactive)
15 | COc1cc2c(cc1OC)C(=O)/C(=C/c1cc(Cl)cc(Cl)c1)C2 | > 26.4 µM (inactive) | 1.38 µM (inactive) | 11.3 µM (inactive) | 4.33 µM (inactive) | 3.03 | 3.87 µM (inactive) | 1.35 µM (inactive) | 0.859 µM (active) | 5.08 µM (inactive) | 18.7 µM (inactive) | 21.4 µM (inactive) | 2.07 µM (inactive) |  | 4.18 µM (inactive) | > 34.1 µM (inactive) | 1.57 µM (inactive) | 11.3 µM (inactive) | 3.79 µM (inactive) | 6.21 µM (inactive)
